Measured values as given in ChEMBL document CHEMBL6092217 (Eur J Med Chem, 2024).
Active and inactive are the calls of the source. The calls are words filed in the database; no cut-off is given here.

Legend:
PC-3 = assay: Antiproliferative activity against human PC-3 cells assessed as cell viability incubated for 72 hrs by MTT assay; type: functional, cell-based; details: PC-3, 72 h
RKO = assay: Antiproliferative activity against human RKO cells assessed as cell viability incubated for 72 hrs by MTT assay; type: functional, cell-based
MCF7 = assay: Antiproliferative activity against human MCF7 cells assessed as cell viability incubated for 72 hrs by MTT assay; type: functional, cell-based; details: MCF7, 72 h
HepG2 = assay: Antiproliferative activity against human HepG2 cells assessed as cell viability incubated for 72 hrs by MTT assay; type: functional, cell-based; details: HepG2, 72 h
HT-29 [1] = assay: Antiproliferative activity against human HT-29 cells assessed as cell viability incubated for 72 hrs by MTT assay; type: functional, cell-based; details: HT-29, 72 h
[2] = Resistance index, ratio of IC50 for human A549/TxR cells to IC50 for human A549 cells; type: functional
Tubulin (Homo sapiens) [3] = target: T1, Tubulin (Homo sapiens) (UniProt P68371+Q9H4B7+P0DPH7+P68366+Q13509+Q71U36+P04350+Q3ZCM7+P07437+P68363+Q9BQE3+Q6PEY2+Q13885+Q9BVA1+Q9BUF5); assay: Binding affinity to Tubulin colchicine binding site in human HT-29 cells assessed as inhibition of EBI-beta-tubulin adduct formation at 1 to 100 uM preincubated with compound for 2 hrs followed by EBI addition measured after 1.5 hrs by EBI competition based Western blotting analysis; type: cell-based; details: dose 1-100 µM, time 3.5 hrs
Tubulin (Homo sapiens) [4] = target: T1, Tubulin (Homo sapiens); assay: Inhibition of tubulin polymerization in human HT-29 cells assessed as upregulation of DeY- alpha-tubulin expression 50 to 200 nM incubated for 24 hrs by Western blot analysis; type: cell-based; details: dose 50-200 nM
HT-29 [5] = assay: Inhibition of colony formation in human HT-29 cells; type: functional, cell-based; details: dose 25-200 nM
HT-29 [6] = assay: Induction of cell cycle arrest in human HT-29 cells assessed as accumulation of cells at G1 phase at 50 nM incubated for 24 hrs by flow cytometry analysis (reference value: 67.6%); type: functional
HT-29 [7] = assay: Induction of cell cycle arrest in human HT-29 cells assessed as accumulation of cells at G1 phase at 200 nM incubated for 24 hrs by flow cytometry analysis (reference value: 67.6%); type: functional
HT-29 [8] = assay: Induction of cell cycle arrest in human HT-29 cells assessed as accumulation of cells at S phase at 50 nM incubated for 24 hrs by flow cytometry analysis (reference value: 20.8 %); type: functional
HT-29 [9] = assay: Induction of cell cycle arrest in human HT-29 cells assessed as increase in cyclin-B1 expression incubated for 24 hrs by Western blot analysis; type: functional, cell-based; details: dose 50-200 nM
HT-29 [10] = assay: Induction of cell cycle arrest in human HT-29 cells assessed as effect on CDC2 expression at 50 to 200 nM incubated for 24 hrs by Western blot analysis; type: functional, cell-based; details: dose 50-200 nM
HT-29 [11] = assay: Induction of cell cycle arrest in human HT-29 cells assessed as reduction in p-CDC2 expression incubated for 24 hrs by Western blot analysis; type: functional, cell-based; details: dose 50-200 nM
HT-29 [12] = assay: Induction of apoptosis in human HT-29 cells assessed as viable cells at 50 nM incubated for 24 hrs by FITC/PI staining based flow cytometry analysis (reference value: 91.6%); type: functional; details: read-out: Activity
HT-29 [13] = assay: Induction of apoptosis in human HT-29 cells assessed as necrotic cells at 50 nM incubated for 24 hrs by FITC/PI staining based flow cytometry analysis (reference value: 0.017 %); type: functional
HT-29 [14] = assay: Induction of apoptosis in human HT-29 cells assessed as viable cells at 100 nM incubated for 24 hrs by FITC/PI staining based flow cytometry analysis (reference value: 91.6%); type: functional; details: read-out: Activity
HT-29 [15] = assay: Induction of apoptosis in human HT-29 cells assessed as late apoptotic cells at 100 nM incubated for 24 hrs by FITC/PI staining based flow cytometry analysis (reference value: 0.20%); type: functional
HT-29 [16] = assay: Induction of apoptosis in human HT-29 cells assessed as necrotic cells at 100 nM incubated for 24 hrs by FITC/PI staining based flow cytometry analysis (reference value: 0.017 %); type: functional
HT-29 [17] = assay: Induction of apoptosis in human HT-29 cells assessed as early apoptotic cells at 200 nM incubated for 24 hrs by FITC/PI staining based flow cytometry analysis (reference value: 8.14%); type: functional
HT-29 [18] = assay: Induction of apoptosis in human HT-29 cells assessed as late apoptotic cells at 200 nM incubated for 24 hrs by FITC/PI staining based flow cytometry analysis (reference value: 0.20%); type: functional
HT-29 [19] = assay: Induction of apoptosis in human HT-29 cells assessed as upregulation of Bax level at 50 to 200 nM incubated for 24 hrs by Western blot analysis; type: functional, cell-based; details: dose 50-200 nM
HT-29 [20] = assay: Induction of apoptosis in human HT-29 cells assessed as upregulation of cleaved PARP level at 50 to 200 nM incubated for 24 hrs by Western blot analysis; type: functional, cell-based; details: dose 50-200 nM
HT-29 [21] = assay: Induction of apoptosis in human HT-29 cells assessed as downregulation of Bcl-2 level at 50 to 200 nM incubated for 24 hrs by Western blot analysis; type: functional, cell-based; details: dose 50-200 nM
Mitochondrial membrane = assay: Induction of mitochondrial membrane potential loss in human HT-29 cells assessed as decrease in red fluorescence at 50 to 100 nM incubated for 24 hrs by JC-1 staining based confocal microscopic analysis; type: cell membranes; details: dose 50-100 nM
HUVEC = assay: Inhibition of tube formation in HUVEC cells incubated for 6 hrs by inverted microscopic analysis; type: functional, cell-based; details: Homo sapiens, dose 50-100 nM
HT-29 [22] = assay: Antitumor activity against human HT-29 cells xenografted in BALB/c mouse assessed as reduction in CD31 expression at 10 to 40 mg/kg, iv measured after 21 days by immunohistochemical analysis; type: functional, organism-based; details: dose 10-40 mg/kg, time 21.0 day
[23] = Toxicity in BALB/c mouse assessed as spleen damage at 10 to 40 mg/kg, iv measured after 21 days by H and E staining based analysis; type: organism-based; details: in vivo, 504 h, dose 10-40 mg/kg, time 21 day
[24] = Toxicity in BALB/c mouse assessed as kidney damage at 10 to 40 mg/kg, iv measured after 21 days by H and E staining based analysis; type: organism-based; details: in vivo, 504 h, dose 10-40 mg/kg, time 21 day
[25] = Toxicity in ICR mouse assessed as effect on CK level at 10 to 40 mg/kg, iv administered every 2 days and measured after 14 days; type: organism-based; details: in vivo, 336 h, dose 10-40 mg/kg, time 14 day
[26] = Toxicity in ICR mouse assessed as effect on lymphocytes count at 10 to 40 mg/kg, iv administered every 2 days and measured after 14 days; type: organism-based; details: in vivo, 336 h, dose 10-40 mg/kg, time 14 day
[27] = Toxicity in ICR mouse assessed as effect on monocyte count at 10 to 40 mg/kg, iv administered every 2 days and measured after 14 days; type: organism-based; details: in vivo, 336 h, dose 10-40 mg/kg, time 14 day
[28] = AUC (0 to t) in Sprague-Dawley rat at 5 mg/kg, iv measured upto 24 hrs by HPLC-MS analysis; type: ADME, organism-based; details: in vivo
[29] = MRT (0 to t) in Sprague-Dawley rat at 5 mg/kg, iv measured upto 24 hrs by HPLC-MS analysis; type: ADME, organism-based; details: in vivo
[30] = Clerance in Sprague-Dawley rat at 5 mg/kg, iv measured upto 24 hrs by HPLC-MS analysis; type: ADME, organism-based; details: in vivo

Question: Which results are given for COc1ccc(N(C)c2nc(/C=C/c3cccc(OC)c3)nc3ccccc23)cc1?
Answer: IC50 (PC-3): 130 nM; IC50 (RKO): 100 nM; IC50 (MCF7): 110 nM; IC50 (HepG2): 190 nM; IC50 (HT-29 [1]): 51 nM; Ratio IC50 [2]: 2.53; inhibition (Tubulin (Homo sapiens) [3]): Active; inhibition (Tubulin (Homo sapiens) [4]): Active; inhibition (HT-29 [5]): Dose-dependent-effect; Activity (HT-29 [6]): 64.6%; Activity (HT-29 [7]): 23.5%; Activity (HT-29 [8]): 16.5%; Activity (HT-29 [9]): Dose-dependent-effect; Activity (HT-29 [10]): inactive; Activity (HT-29 [11]): Dose-dependent-effect; viability at 0.05 µM (HT-29 [12]): 72%; Activity (HT-29 [13]): 1.79%; viability at 0.1 µM (HT-29 [14]): 67.2%; Activity (HT-29 [15]): 27.2%; Activity (HT-29 [16]): 2.72%; Activity (HT-29 [17]): 18.2%; Activity (HT-29 [18]): 37.3%; Activity (HT-29 [19]): Active; Activity (HT-29 [20]): Active; Activity (HT-29 [21]): Active; Activity (Mitochondrial membrane): Active; inhibition (HUVEC): Dose-dependent-effect; Activity (HT-29 [22]): Active; Activity [23]: Non-toxic; Activity [24]: Non-toxic; Activity [25]: Non-toxic; Activity [26]: Non-toxic; Activity [27]: Non-toxic; AUC(0-t) at 24 h [28]: 3820 ng·h/mL; MRT last at 24 h [29]: 46.8 min; clearance [30]: 22.2 mL/min/kg
